In brackets after ≈: the same amount, converted by molar mass.
The molecules below were run against T1, HIV-1 protease (Human immunodeficiency virus type 1 group M subtype B, UniProt P04585) (assay: biochemical). Details: not given.
T1 construct: Purified HIV-1 protease was obtained as described above; made in house; host or cells: E. coli K12 L507/pHP10D (NRRL B-18560)
Type: biochemical
Experimental: E. Fluorescence HIV-1 Protease Inhibitor Assay
The following buffers and solutions are used in the Fluorescence HIV-1 Protease Inhibitor Assay:
To each well of a round bottom, 96-well plate is added 20 μL of the Enzyme Solution followed by 10 μL of the compound to be evaluated in a 20% aqueous dimethylsulfoxide solution. Purified HIV-1 protease was obtained as described above. The resulting solution is incubated for one hour at room temperature and then 20 μL of a solution containing the substrate, prepared above, in MES-ALB buffer (1.5 μl/mL) is added to each well. The solutions are then incubated for 16 hours at room temperature and then each well is diluted with 150 μL of MES-ALB buffer.
To each well of a second round bottom, 96-well Pandex plate is added 25 μL of the Avidin Coated Beads Solution. Then, to each well is added 25 μL of the diluted incubation solutions, prepared above. The solutions are mixed thoroughly and the plates are loaded into a Pandex® machine, washed, evacuated and read. Sample detection was performed by excitation at 485 nm, reading the resulting epifluorescence at 535 nm.

Row | SMILES | IC50 [nM]
1 | CC(C)(C)NC(=O)[C@@H]1C[C@@H]2CCCC[C@@H]2CN1C[C@@H](O)[C@H](Cc1ccccc1)NC(=O)[C@@H](CS(=O)(=O)c1ccc2ccccc2c1)NS(C)(=O)=O [Example 44, [2R-(2R*,3R*,6R*,3'S*,4a'S*,8a'S*)]-N(t-Butyl)-2'-[2-hydroxy-3-phenylmethyl-4-aza-5-oxo-6-N(methylsulfonyl)amino-7-naphth-2-ylsulfonyl]heptyl decahydroisoquinoline-3'-carboxamide] | 0.202
2 | CC(C)(C)NC(=O)[C@@H]1C[C@@H]2CCCC[C@@H]2CN1C[C@@H](O)[C@H](Cc1ccccc1)NC(=O)[C@@H](C[S+]([O-])c1ccc(F)cc1)NS(C)(=O)=O (stereo partly drawn) [Example 38, [2R-(2R*,3R*,6R*,3'S*,4a'S*,8a'S*)]-N(t-Butyl)-2'-[2-hydroxy-3-phenylmethyl-4-aza-5-oxo-6-N(methylsulfonyl)amino-7-p-fluoro-phenylsulfinyl]heptyl decahydroisoquinoline-3'-carboxamide] | 0.722
3 | CC(C)(C)NC(=O)[C@@H]1C[C@@H]2CCCC[C@@H]2CN1C[C@@H](O)[C@H](Cc1ccccc1)NC(=O)[C@@H](CSc1ccc2ccccc2c1)NS(C)(=O)=O [Example 41, [2R-(2R*,3R*,6R*,3'S*,4a'S*,8a'S*)]-N(t-Butyl)-2'-[2-hydroxy-3-phenylmethyl-4-aza-5-oxo-6-N(methylsulfonyl)amino-7-naphth-2-ylthio]heptyl decahydroisoquinoline-3'-carboxamide] | 7.76
4 | CC(=O)N[C@H](CS(=O)(=O)c1ccc2ccccc2c1)C(=O)N[C@@H](Cc1ccccc1)[C@H](O)CN1C[C@H]2CCCC[C@H]2C[C@H]1C(=O)NC(C)(C)C [Example 36, [2R-(2R*,3R*,6R*,3'S*,4a'S*,8a'S*)]-N(t-Butyl)-2'-[2-hydroxy-3-phenylmethyl-4-aza-5-oxo-6-N(ethanoyl)amino-7-naphth-2ylsulfonyl]heptyl decahydroisoquinoline-3'-carboxamide] | 0.426
5 | CC(C)(C)NC(=O)[C@@H]1C[C@@H]2CCCC[C@@H]2CN1C[C@@H](O)[C@H](Cc1ccccc1)NC(=O)[C@@H](CSc1ccc(F)cc1)NS(C)(=O)=O [Example 37, [2R-(2R*,3R*,6R*,3'S*,4a'S*,8a'S*)]-N(t-Butyl)-2'-[2-hydroxy-3-phenylmethyl-4-aza-5-oxo-6-N(methylsulfonyl)amino-7-p-fluoro-phenylthio]heptyl decahydroisoquinoline-3'-carboxamide] | 5.32
6 | CC(C)(C)NC(=O)[C@@H]1C[C@@H]2CCCC[C@@H]2CN1C[C@@H](O)[C@H](Cc1ccccc1)NC(=O)[C@@H](CS(=O)(=O)c1ccc(F)cc1)NS(C)(=O)=O [Example 39, [2R-(2R*,3R*,6R*,3'S*,4a'S*,8a'S*)]-N(t-Butyl)-2'-[2-hydroxy-3-phenylmethyl-4-aza-5-oxo-6-N(methylsulfonyl)amino-7-p-fluoro-phenylsulfonyl]heptyl decahydroisoquinoline-3'-carboxamide] | 0.846
7 | CC(C)(C)NC(=O)[C@@H]1C[C@@H]2CCCC[C@@H]2CN1C[C@@H](O)[C@H](CSc1ccccc1)NC(=O)[C@@H](CS(=O)(=O)c1ccc(F)cc1)NS(C)(=O)=O [Example 47] | 10.9
8 | CC(=O)N[C@H](CSCc1ccccc1)C(=O)N[C@@H](Cc1ccccc1)[C@H](O)CN1C[C@H]2CCCC[C@H]2C[C@H]1C(=O)NC(C)(C)C [Example 49, [2R-(2R*,3R*,6R*,3'S*,4a'S*,8a'S*)]-N(t-Butyl)-2'-[2-hydroxy-3-phenylmethyl-4-aza-5-oxo-6-N(ethanoyl)amino-7-phenylmethylthio]heptyl decahydroisoquinoline-3'-carboxamide] | 1.1
9 | CC(C)(C)NC(=O)[C@@H]1C[C@@H]2CCCC[C@@H]2CN1C[C@@H](O)[C@H](Cc1ccccc1)NC(=O)[C@@H](C[S+]([O-])c1ccc2ccccc2c1)NS(C)(=O)=O (stereo partly drawn) [Example 42, [2R-(2R*,3R*,6R*,3'S*,4a'S*,8a'S*)]-N(t-Butyl)-2'-[2-hydroxy-3-phenylmethyl-4-aza-5-oxo-6-N(methylsulfonyl)amino-7-naphth-2-ylsulfinyl]heptyl decahydroisoquinoline-3'-carboxamide] | 0.621
10 | CC(C)(C)NC(=O)[C@@H]1C[C@@H]2CCCC[C@@H]2CN1C[C@@H](O)[C@H](Cc1ccccc1)NC(=O)[C@@H](CS(=O)(=O)c1ccc(F)cc1)NS(C)(=O)=O [Example 40, [2R-(2R*,3R*,6R*,3'S*,4a'S*,8a'S*)]-N(t-Butyl)-2'-[2-hydroxy-3-phenylmethyl-4-aza-5-oxo-6-N(methylsulfonyl)amino-7-p-fluoro-phenylsulfonyl]heptyl decahydroisoquinoline-3'-carboxamide] | 0.635
11 | CC(C)(C)NC(=O)[C@@H]1CN(Cc2cccnc2)CCN1C[C@@H](O)[C@H](Cc1ccccc1)NC(=O)[C@@H](CS(=O)(=O)c1ccc(F)cc1)NS(C)(=O)=O (relative stereo) [Example 46] | 1.23

Same assay, conditions: pH 5.5

Row | SMILES | IC50 [nM]
12 | CC(=O)NC(CSCc1ccccc1)C(=O)NC(Cc1ccccc1)C(O)CN1CC2CCCCC2CC1C(=O)NC(C)(C)C (stereo not drawn) [Example 33, [2R-(2R*,3R*,6R*,3'S*,4a'S*,8a'S*)]-N(t-Butyl)-2'-[2-hydroxy-3-phenylmethyl-4-aza-5-oxo-6-N(ethanoyl)amino-7-phenylmethylthio]heptyl decahydroisoquinoline-3'-carboxamide] | 1.1

Same assay, conditions: read-out: Fluorescence Assay IC65 (65% inhibition at 0.16 ng/mL)

Row | SMILES | IC65 [ng/mL]
13 | CC(C)(C)NC(=O)[C@@H]1C[C@@H]2CCCC[C@@H]2CN1C[C@@H](O)[C@H](CSc1ccccc1)NC(=O)[C@@H](CS(=O)(=O)c1ccc2ccccc2c1)NS(C)(=O)=O [Example 48] | 0.16 (≈ 0.207 nM)
